# Results from ChEMBL document CHEMBL1123717, “Folate analogues as inhibitors of thymidylate synthase” (J Med Chem, 1987).
# Key:
# [1] = target: T1, Thymidylate synthase (Homo sapiens, UniProt P04818); assay: Ability to inhibit thymidylate synthase derived from human leukemia K562 cells; assay type: cell-based
# [2] = target: T1, Thymidylate synthase; assay: Inhibitory activity against human thymidylate synthase derived either from HeLa or KB cells; assay type: cell-based
# [3] = target: T2, Thymidylate synthase (Lactobacillus casei, UniProt P00469); assay: Ability to inhibit thymidylate synthase derived from Lactobacillus casei; design: species or system Lacticaseibacillus casei
# T2 sequence (P00469 whole entry): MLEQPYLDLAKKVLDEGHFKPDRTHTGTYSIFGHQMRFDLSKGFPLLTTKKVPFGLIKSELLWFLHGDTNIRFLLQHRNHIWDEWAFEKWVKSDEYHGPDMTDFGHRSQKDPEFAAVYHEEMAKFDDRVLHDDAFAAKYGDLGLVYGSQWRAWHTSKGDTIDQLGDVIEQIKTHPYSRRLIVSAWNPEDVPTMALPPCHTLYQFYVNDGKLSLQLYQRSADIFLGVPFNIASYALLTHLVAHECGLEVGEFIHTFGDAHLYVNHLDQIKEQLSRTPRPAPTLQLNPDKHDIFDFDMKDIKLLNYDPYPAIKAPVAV
# [4] = target: T1, Thymidylate synthase; assay: Inhibitory constant of thymidylate synthase was determined in human AML cells; assay type: cell-based
# T1 sequence (P04818 whole entry): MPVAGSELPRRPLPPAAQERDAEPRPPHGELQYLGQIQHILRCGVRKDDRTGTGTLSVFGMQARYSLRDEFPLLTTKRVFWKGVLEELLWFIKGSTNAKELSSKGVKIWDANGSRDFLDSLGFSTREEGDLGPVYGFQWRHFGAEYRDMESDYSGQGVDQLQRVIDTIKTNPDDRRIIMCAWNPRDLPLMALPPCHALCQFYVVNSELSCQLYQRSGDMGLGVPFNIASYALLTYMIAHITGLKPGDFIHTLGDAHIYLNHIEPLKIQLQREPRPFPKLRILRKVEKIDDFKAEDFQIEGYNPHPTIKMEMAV
IC50 [1] [nM],SMILES,also measured
2500,CN(Cc1ccc2nc(N)[nH]c(=O)c2n1)c1ccc(C(=O)N[C@@H](CCC(=O)O)C(=O)O)cc1,
2400,C#CCN(Cc1ccc2nc(N)[nH]c(=O)c2n1)c1ccc(C(=O)N[C@@H](CCC(=O)O)C(=O)O)cc1,
,C#CN(Cc1cnc2nc(N)nc(N)c2n1)c1ccc(C(=O)NC(CCC(=O)O)C(=O)O)cc1 (stereo unspecified),IC50 [2]: 20 nM
290,CN(Cc1ccc2nc(N)[nH]c(=O)c2c1)c1ccc(C(=O)N[C@@H](CCC(=O)O)C(=O)O)cc1,
1260,C#CCN(Cc1ccc2nc(N)nc(N)c2n1)c1ccc(C(=O)NC(CCC(=O)O)C(=O)O)cc1 (stereo unspecified),
5500,C#CCN(Cc1cnc2nc(N)[nH]c(=O)c2n1)c1ccc(C(=O)N[C@@H](CCC(=O)O)C(=O)O)cc1,IC50 [3]: 3900 nM
,CN(Cc1cnc2nc(N)[nH]c(=O)c2n1)c1ccc(C(=O)N[C@@H](CCC(=O)O)C(=O)O)cc1 [METHOPTERINE],Ki [4]: 1000 nM

SMILES,IC50 [1] [nM],also measured
Nc1nc(O)c2nc(CNc3ccc(C(=O)N[C@@H](CCC(=O)O)C(=O)O)cc3)ccc2n1,55000,
Nc1nc2ncc(CNc3ccc(C(=O)N[C@@H](CCC(=O)O)C(=O)O)cc3)nc2c(=O)[nH]1 [FOLIC ACID],290000,Ki [4]: 40000 nM
